Test results taken from patent US20050070480A1, “Peptide arginals and methods for treating disseminated intravascular coagulation” (priority 2001, published 2005).
pIC50: −log10 of the molar value. Where two headings read alike, the source gives them in different places. Non-standard residues stand in square brackets, D forms with d. Residues, ends and D or L forms follow the SMILES beside them. dNMeChg = CN[C@@H](C(=O)O)C1CCCCC1; Aze = O=C(O)[C@@H]1CCN1

Key:
[1] = tested on: citrated human plasma (exogenous thrombin); experiment: Thrombin time (TT) plasma clotting assay; format: biochemical; conditions: thrombin 2.5 NIH U/ml
Method: (§1) The inhibitory effect on plasma coagulation was evaluated in the thrombin time (TT), activated partial thromboplastin time (APTT) and prothrombin time (PT) assays by using citrated human plasma as substrate [Bagdy, D. et. al.: Thromb. Haemostas. 67, 325 (1992)]. The TT assay measures the inhibition of a single step, the coagulation of fibrinogen on the action of exogenous thrombin (final concentration 2.5 NIH U/ml). Clotting of plasma in the APTT and PT assays was induced by recalcification. Endogenous thrombin generated could theoretically be present at a final concentration as high as 50 NIH U/ml (APTT, PT). These assays detect the sum of inhibitory actions on fibrin formation and thrombin generation, which includes several proteolytic reactions mediated by either thrombin or other enzymes, e.g. fXa. Anticlotting activity is expressed in CT2, which is the concentration (nM) required to double the clotting time.

citrated human plasma [2] = experiment: Activated partial thromboplastin time (APTT) plasma clotting assay; format: biochemical
Method: as §1

citrated human plasma [3] = experiment: Prothrombin time (PT) plasma clotting assay; format: biochemical
Method: as §1

clot-bound thrombin = clot-bound thrombin (Homo sapiens, UniProt P00734); experiment: Enzyme inhibition in platelet-rich plasma clots, chromogenic substrate Tos-Gly-Pro-Arg-pNA; format: biochemical; conditions: for pIC50: clot-bound thrombin, platelet-rich plasma clot
Method: (§2) Tos-Gly-Pro-Arg-pNA (S1) for thrombin and Moc-D-Chg-Gly-Arg-pNA (S2) for factor Xa, as published (Bajusz, S. et al.: PCT Pub. No. WO97/46576) briefly. The assays were carried out at room temperature in glass tubes and 96-well microtiter plates.
(§3) Solutions, (i) Buffer A: 0.1 M sodium phosphate/0.05 M NaCl (pH 8.5). (ii) Inhibitors: 0.1, 1.0 and 10 mg/ml solutions in buffer A containing 0.02% human albumin. (iii) Substrates: 1 mM of S1 and 2 mM of S2 in distilled water.
(§4) (b) Preparation of plasma clots. Platelet rich plasma samples (200 μl) placed in glass tubes were incubated at room temperature with 80 μl 40 mM CaCl2 for 60 min. The clots were washed with 2 ml aliquots of saline (0.9% NaCl) with gentle agitation to remove unbound enzymes In case of successful washing the optical density of the reaction mixture of wash and S1 is less than 5% of the control. The plasma clot thus obtained was kept under saline in the tube until use.
(§5) (c) Assessment of the enzyme inhibition in the clots. After removal of saline, the plasma clot was incubated at 37° C. with 400 μl inhibitor (or buffer A as negative control) for 5 min. and with 100 μl substrate S1 or S3 for 30 min., then the reaction was stopped with 100 μl 50% acetic acid. 150 μl portions of the reaction mixtures were placed in the wells of a microtiter plate and read at 405 nm (ELISA READER 800, Bio-Tek Instruments Inc. Winooski, Vt., USA). IC50 values were generated from the extinction data graphically.

clot-bound factor Xa = clot-bound factor Xa (Homo sapiens, UniProt P00742); experiment: Enzyme inhibition in platelet-rich plasma clots, chromogenic substrate Moc-D-Chg-Gly-Arg-pNA; format: biochemical
clot-bound factor Xa, sequence (P00742 235-488 limits assumed): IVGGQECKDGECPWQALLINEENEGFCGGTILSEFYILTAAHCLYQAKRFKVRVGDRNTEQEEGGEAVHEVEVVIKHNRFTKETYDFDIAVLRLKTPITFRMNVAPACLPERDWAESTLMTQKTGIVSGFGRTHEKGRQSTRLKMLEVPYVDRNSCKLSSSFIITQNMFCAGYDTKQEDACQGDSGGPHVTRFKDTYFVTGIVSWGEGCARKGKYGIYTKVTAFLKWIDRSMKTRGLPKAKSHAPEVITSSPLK
clot-bound factor Xa, sequence (P00742 41-179 limits assumed): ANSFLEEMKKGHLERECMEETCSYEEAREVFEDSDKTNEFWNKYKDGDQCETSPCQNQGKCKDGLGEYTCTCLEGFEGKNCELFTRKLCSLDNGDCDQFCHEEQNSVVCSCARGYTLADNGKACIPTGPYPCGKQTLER
Method: as §2, §3, §4, §5

plasmin (PL) = plasmin (PL) (Homo sapiens, UniProt P00747); experiment: Fibrin plate assay, plasmin; format: biochemical; conditions: reduction of lysed area to 50% of control, read-out: LA50 PL
plasmin (PL), sequence (P00747 581-810 limits assumed, species assumed): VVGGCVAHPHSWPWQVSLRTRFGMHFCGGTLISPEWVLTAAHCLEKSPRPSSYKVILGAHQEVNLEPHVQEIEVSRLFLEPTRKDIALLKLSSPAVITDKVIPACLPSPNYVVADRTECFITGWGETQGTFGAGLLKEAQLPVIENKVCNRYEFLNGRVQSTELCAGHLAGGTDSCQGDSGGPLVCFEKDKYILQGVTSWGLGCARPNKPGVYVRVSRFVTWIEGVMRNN
plasmin (PL), sequence (P00747 97-580 limits assumed, species assumed): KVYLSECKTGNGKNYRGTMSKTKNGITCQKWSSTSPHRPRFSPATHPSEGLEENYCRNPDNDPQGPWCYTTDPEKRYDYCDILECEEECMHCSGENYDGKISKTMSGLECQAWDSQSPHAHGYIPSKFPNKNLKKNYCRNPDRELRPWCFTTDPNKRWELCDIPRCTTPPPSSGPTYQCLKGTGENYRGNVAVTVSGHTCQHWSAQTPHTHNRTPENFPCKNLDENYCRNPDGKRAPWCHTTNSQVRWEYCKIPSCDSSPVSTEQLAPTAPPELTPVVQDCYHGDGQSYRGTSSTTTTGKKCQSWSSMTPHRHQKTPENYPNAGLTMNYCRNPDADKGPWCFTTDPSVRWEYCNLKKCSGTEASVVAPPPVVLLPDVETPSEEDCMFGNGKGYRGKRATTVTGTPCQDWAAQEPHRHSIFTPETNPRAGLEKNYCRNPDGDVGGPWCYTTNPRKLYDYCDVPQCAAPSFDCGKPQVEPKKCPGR
From the text: (§6) Inhibitory effects of the compounds of the invention on plasmin (PL) and plasmin generation by plasminogen (Plogen) activators, such as tissue plasminogen activator (tPA), and urokinase (UK) were examined by the fibrin plate assay. (See e.g., Bagdy, D., Barabás, E., Bajusz, S., and Széll, E., Thromb. Haemostas., 67:325-330 (1992); Barabás, E. Szell, E. and Bajusz, S, Blood Coagulation and Fibrinolysis, 4: 243 (1993)) The results are shown in Table 1, Column C. With a few exceptions the analogues are somewhat more inhibitory than Efegatran against the three fibrinolytic enzymes.

[4] = biological target: tissue plasminogen activator (tPA) (Homo sapiens, UniProt P00750); experiment: Fibrin plate assay, tissue plasminogen activator; format: biochemical; conditions: reduction of lysed area to 50% of control, read-out: LA50 tPA
tissue plasminogen activator (tPA), sequence (P00750 36-562, species assumed): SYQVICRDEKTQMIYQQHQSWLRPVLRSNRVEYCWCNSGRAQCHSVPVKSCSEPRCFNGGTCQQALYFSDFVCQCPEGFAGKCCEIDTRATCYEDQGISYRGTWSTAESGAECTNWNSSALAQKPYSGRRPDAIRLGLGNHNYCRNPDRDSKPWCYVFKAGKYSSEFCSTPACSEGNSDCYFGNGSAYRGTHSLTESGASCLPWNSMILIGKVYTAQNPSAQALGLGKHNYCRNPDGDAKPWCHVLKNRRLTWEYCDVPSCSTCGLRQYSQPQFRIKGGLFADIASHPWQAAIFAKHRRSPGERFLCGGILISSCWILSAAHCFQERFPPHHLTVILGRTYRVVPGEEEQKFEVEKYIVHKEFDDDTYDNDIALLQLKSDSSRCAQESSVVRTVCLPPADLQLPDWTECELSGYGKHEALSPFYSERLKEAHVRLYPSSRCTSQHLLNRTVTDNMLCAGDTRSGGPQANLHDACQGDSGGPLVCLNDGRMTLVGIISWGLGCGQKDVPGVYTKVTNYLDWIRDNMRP
From the text: as §6

urokinase (UK) = urokinase (UK) (Homo sapiens, UniProt P00749); experiment: Fibrin plate assay, urokinase; format: biochemical; conditions: reduction of lysed area to 50% of control, urokinase, read-out: LA50 UK
From the text: as §6

[5] = tested on: endotoxin-treated rabbits; format: in vivo, rabbit; conditions: for Lethality %, 2 hrs / Lethality no. died/treated animals, 2 hrs / Lethality %, 4 hrs / Lethality no. died/treated animals, 4 hrs: endotoxin-treated rabbits
LPS-treated rats = experiment: Survival in a rat model for disseminated intravascular coagulation; format: in vivo; conditions: for Survival rate %: rats, 30 mg/kg LPS i.v.; for Effectiveness on survival compared with reference C (in words): LPS-treated rats
[6] = 0.75 mg/kg bolus + infusion, 0 hours
[7] = 0.75 mg/kg bolus + infusion, 4 hours
[8] = 0.75 mg/kg bolus + infusion, 5 hours
[9] = 0.75 mg/kg bolus + infusion, 6 hours
[10] = 0.75 mg/kg bolus + infusion, 7 hours
[11] = 0.75 mg/kg bolus + infusion, 8 hours
[12] = 1.0 mg/kg bolus + infusion, 0 hours
[13] = 1.0 mg/kg bolus + infusion, 4 hours
[14] = 1.0 mg/kg bolus + infusion, 5 hours
[15] = 1.0 mg/kg bolus + infusion, 6 hours
[16] = 1.0 mg/kg bolus + infusion, 7 hours
[17] = 1.0 mg/kg bolus + infusion, 8 hours
[18] = 1.5 mg/kg bolus + infusion, 0 hours
[19] = 1.5 mg/kg bolus + infusion, 4 hours
[20] = 1.5 mg/kg bolus + infusion, 5 hours
[21] = 1.5 mg/kg bolus + infusion, 6 hours
[22] = 1.5 mg/kg bolus + infusion, 7 hours
[23] = 1.5 mg/kg bolus + infusion, 8 hours

SMILES	CT2 TT (concentration required for doubling the clotting time) [1] [nM]	CT2 APTT (concentration required for doubling the clotting time) (citrated human plasma [2]) [nM]	CT2 PT (concentration required for doubling the clotting time) (citrated human plasma [3]) [nM]	pIC50 (clot-bound thrombin)	pIC50 (clot-bound factor Xa)	pIC50 (plasmin (PL))	pIC50 [4]	pIC50 (urokinase (UK))	Survival rate % (LPS-treated rats; [6]) [%]	Survival rate % (LPS-treated rats; [7]) [%]	Survival rate % (LPS-treated rats; [8]) [%]	Survival rate % (LPS-treated rats; [9]) [%]	Survival rate % (LPS-treated rats; [10]) [%]	Survival rate % (LPS-treated rats; [11]) [%]	Survival rate % (LPS-treated rats; [18]) [%]	Survival rate % (LPS-treated rats; [19]) [%]	Survival rate % (LPS-treated rats; [20]) [%]	Survival rate % (LPS-treated rats; [21]) [%]	Survival rate % (LPS-treated rats; [22]) [%]	Survival rate % (LPS-treated rats; [23]) [%]	further results
CN[C@H](Cc1ccccc1)C(=O)N1CCC[C@H]1C(=O)N[C@H](C=O)CCCN=C(N)N [C, D-MePhe-Pro-Arg-H, reference compound]	87	622	2915	6.43	6.00	4.27	3.88	4.09	100	93	73	67	33	27	100	100	100	100	92	92	Lethality %, 2 hrs ([5]; 0.25 mg/kg/h infusion): 7%; Lethality no. died/treated animals, 2 hrs ([5]; 0.25 mg/kg/h infusion): 1/14; Lethality %, 4 hrs ([5]; 0.25 mg/kg/h infusion): 36%; Lethality no. died/treated animals, 4 hrs ([5]; 0.25 mg/kg/h infusion): 5/14; Lethality %, 2 hrs ([5]; 0.5 mg/kg/h infusion): 7%; Lethality no. died/treated animals, 2 hrs ([5]; 0.5 mg/kg/h infusion): 1/15; Lethality %, 4 hrs ([5]; 0.5 mg/kg/h infusion): 40%; Lethality no. died/treated animals, 4 hrs ([5]; 0.5 mg/kg/h infusion): 6/15; Survival rate % (LPS-treated rats; [12]): 100%; Survival rate % (LPS-treated rats; [13]): 83%; Survival rate % (LPS-treated rats; [14]): 83%; Survival rate % (LPS-treated rats; [15]): 66%; Survival rate % (LPS-treated rats; [16]): 58%; Survival rate % (LPS-treated rats; [17]): 50%
CN[C@H](CC1CCCCCC1)C(=O)N1CCC[C@H]1C(=O)N[C@H](C=O)CCCNC(=N)N [Compound 2, N-methyl-D-cycloheptylalanyl-L-prolyl-L-arginine aldehyde]	118	315	876	7.03	6.99	4.80	4.85	4.74	100	86	78	57	57	50	100	100	100	100	100	100	Inhibition of clot-bound thrombin compared with Efegatran (in words) (clot-bound thrombin): surpass Efegatran; Effectiveness on survival compared with reference C (in words) (LPS-treated rats): more effective than reference C; Survival rate % (LPS-treated rats; [12]): 100%; Survival rate % (LPS-treated rats; [13]): 100%; Survival rate % (LPS-treated rats; [14]): 100%; Survival rate % (LPS-treated rats; [15]): 100%; Survival rate % (LPS-treated rats; [16]): 90%; Survival rate % (LPS-treated rats; [17]): 90%
CN[C@@H](C(=O)N1CC[C@H]1C(=O)N[C@H](C=O)CCCNC(=N)N)C1CCCCC1 [Compound 4, N-methyl-D-cyclohexylglycyl-L-azetidine-2-carbonyl-L-arginine aldehyde] (H-[dNMeChg]-[Aze]-Arg-aldehyde)	101	677	2921	6.61	6.34	4.49	4.92	4.80	100	100	100	100	92	85	100	100	100	100	100	100	Inhibition of clot-bound thrombin compared with Efegatran (in words) (clot-bound thrombin): surpass Efegatran; Effectiveness on survival compared with reference C (in words) (LPS-treated rats): more effective than reference C; Survival rate % (LPS-treated rats; 0.5 mg/kg bolus + infusion, 0 hours): 100%; Survival rate % (LPS-treated rats; 0.5 mg/kg bolus + infusion, 4 hours): 93%; Survival rate % (LPS-treated rats; 0.5 mg/kg bolus + infusion, 5 hours): 87%; Survival rate % (LPS-treated rats; 0.5 mg/kg bolus + infusion, 6 hours): 87%; Survival rate % (LPS-treated rats; 0.5 mg/kg bolus + infusion, 7 hours): 87%; Survival rate % (LPS-treated rats; 0.5 mg/kg bolus + infusion, 8 hours): 80%
N=C(N)NCCC[C@@H](C=O)NC(=O)[C@@H]1CCCN1C(=O)[C@H](O)C1CCCCCC1 [Compound C1, reference compound]	120	333	1254	6.28	6.70	4.08	4.13	3.92	–	–	–	–	–	–	–	–	–	–	–	–	Effect on lethality of endotoxin-treated rabbits (in words) ([5]; compared with endotoxin alone): no effect on lethality; Lethality %, 2 hrs ([5]; 0.5 mg/kg/h infusion): 0%; Lethality no. died/treated animals, 2 hrs ([5]; 0.5 mg/kg/h infusion): 0/16; Lethality %, 4 hrs ([5]; 0.5 mg/kg/h infusion): 31%; Lethality no. died/treated animals, 4 hrs ([5]; 0.5 mg/kg/h infusion): 5/16
